Consider two compounds from patent US20160022751A1, “NOVEL COMPOSITION FOR TREATING ALZHEIMER'S DISEASE AND IMPROVING COGNITIVE FUNCTION OF ALZHEIMER'S PATIENTS” (GANGNEUNG-WONJU NATIONAL UNIVERSITY INDUSTRY ACADEMY …, priority 2014, published 2016).

One assay concerns ChAT. As to the kind of experiment: ChAT mRNA expression in N2a cells (RT-PCR). The format is cell-based, mouse. The following applies: single ginsenoside (FIG. 7A). An excerpt:
(§1) The present inventor reported that ChAT overexpressing human neural stem cells restored cognition with an increase of ACh levels in rat model (Park et al., Exp. Neurol., 234: 521-526, 2012). This implies that the increase of the ChAT level in cholinergic neurons plays a critical role in cognition enhancement and thus the cholinergic gene locus “VAChT/ChAT” can be a putative target for therapeutic approaches on AD. Thus the present inventor prepared transfected Neuro-2a (N2a) cells that over-express the human ChAT and APP (designated as “N2a.hChAT” and “N2a.hAPPswe”, respectively, FIG. 6) and the N2a.hChAT and N2a.hAPPswe cells were treated with the faction groups 1 to 5 isolated in the Example 3 at a centration of 50 μg/ml. Neuro-2a mouse neuroblastoma cells (Korean Cell Line Bank, Korea) were grown in DMEM supplemented with 10% fetal bovine serum (FBS), 100 U/m penicillin, and 100 μg/ml streptomycin (Invitrogen, USA) under 5% CO2 at 37° C. in tissue culture flasks. For all experiments, cells were grown to greater than 90% confluency and subjected to no more than 20 cell passages. The medium was changed every 2-3 days. Subconfluent cells were harvested and seeded at a density of 5×10^5 cells or 5×10^6 cells in poly-L-lysine-coated 35 mm or 60 mm culture plates. To recover the cells that are not completely saturated for analysis, poly-L-lysine coated 35 mm or 60 mm culture was seeded at a concentration of 5×10^5 or 5×10^6 cells on the plates. The extent of expression of hChAT and APP in the N2a.hChAT and N2a.hAAPswe cells treated with the faction groups 1 to 5 was quantified with RT-PCR using primers described in the below Table 2. At this time, beta-actin was used as an internal control.
(§2) Specifically, total RNA extracts from N2a cells were prepared using the Trizol method (Invitrogen, USA) and cDNA was synthesized from RNA by reverse transcription of 1 μg of total RNA using a reverse transcription system (Improm-II, Promega, USA) and oligo dT primers in a total volume of 20 μL. PCR amplification was performed using the primers described in Table 2 (Bioneer, Korea). Quantitative real-time PCR reactions were run on a Rotor-Gene 6000 (Corbett Research, Australia) using SensiMix™ SYBR Hi-ROX Kit (Bioline, U.K.) in 20 μL reaction mixtures. Each real-time-PCR master mix contained 10 μL 2× enzyme master mix, 7.0 μL RNase free water, 1 μL of each primer (10 pM each), and 1 μL diluted template. The PCR was performed with an initial pre-incubation step for 15 min at 95° C., followed by 45 cycles of 95° C. for 15 s, annealing at 52° C. for 15 s, and extension at 72° C. for 10 s. Melting curve analysis was used to confirm formation of the expected PCR product, and products from all assays were additionally tested with 1.2% agarose gel electrophoresis to confirm the correct lengths. An inter-run calibrator was used, and a standard curve was created for each gene to obtain PCR efficiencies. Relative sample expression levels were calculated using Rotor-Gene 6000 Series Software 1.7, and were expressed relative to β-actin and corrected for between-run variability. Data for the experimental samples were expressed as a fold unit the internal control gene.
(§3) In order to examine whether five ginsenosides affect the expression of ChAT related to the synthesis of acetylcholine and VAChT controlling extracellular secretion of acetylcholine, the present inventor analyzed the expression level of ChAT and VAChT after treating the five ginsenosides to N2a […] cells, respectively.

The test system of the next assay is VAChT. As to the kind of experiment: VAChT mRNA expression in N2a cells (RT-PCR). The format is cell-based, mouse. The conditions noted are these: single ginsenoside (FIG. 7B).
Description: as §1, §2, §3

Another assay concerns acetylcholine. The conditions noted are these: Benishin et al., Pharmacol., 42: 223-229, 1991; cited from earlier work.

Consider `CC(C)=CCC[C@](C)(O[C@@H]1O[C@H](CO[C@@H]2O[C@H](CO)[C@@H](O)[C@H](O)[C@H]2O)[C@@H](O)[C@H](O)[C@H]1O)[C@H]1CC[C@]2(C)[C@@H]1[C@H](O)C[C@@H]1[C@@]3(C)CC[C@H](O[C@@H]4O[C@H](CO)[C@@H](O)[C@H](O)[C@H]4O[C@@H]4O[C@H](CO)[C@@H](O)[C@H](O)[C@H]4O)C(C)(C)[C@@H]3CC[C@]12C` [ginsenoside Rb1], for which the “expression of ChAT mRNA” value in the assay with ChAT is “no significant increase”. The “expression of VAChT mRNA” value with VAChT is listed as “no significant increase”. In addition, in the assay on acetylcholine, the “release of acetylcholine (ACh) from hippocampal slices” value is listed as “facilitate the release of acetylcholine”.

For the compound `CC(C)=CCC[C@](C)(O[C@@H]1O[C@H](CO)[C@@H](O)[C@H](O)[C@H]1O)[C@H]1CC[C@]2(C)[C@@H]1[C@H](O)C[C@@H]1[C@@]3(C)CC[C@H](O)C(C)(C)[C@@H]3[C@@H](O[C@@H]3O[C@H](CO)[C@@H](O)[C@H](O)[C@H]3O)C[C@]12C` [ginsenoside Rg1], the “expression of ChAT mRNA” value with ChAT was “no significant increase”. The “expression of VAChT mRNA” value in the assay on VAChT is “no significant increase”.
